Results published in ChEMBL document CHEMBL1159179, “Glucuronide prodrugs of hydroxy compounds for antibody directed enzyme prodrug therapy (ADEPT) : A phenol nitrogen mustard carbamate” (Bioorg Med Chem Lett, 1997).
pIC50: −log10 of the molar value.

Experiments:
[1] = Half life period was determined; assay type: ADME; details: rat
LoVo = experiment: Tested for the cytotoxic effect in LoVo cells, activity; assay type: functional, cell-based; details: Homo sapiens

## CN(C(=O)Oc1ccc(N(CCCl)CCCl)cc1)c1cc([N+](=O)[O-])ccc1O[C@@H]1O[C@@H](C(=O)O)[C@@H](O)[C@H](O)[C@@H]1O
[1]
  half-life: 44 min
LoVo
  pIC50: < 3.08
